Experimental data published in US8987486B2, “Trans-2-decenoic acid derivative and pharmaceutical agent containing the same” (Nagoya Industrial Science Research Institute, priority 2010, dated 2015).

How the values were obtained:
[1] = test system: paclitaxel-induced peripheral nerve disorder rats; assay: von Frey test in paclitaxel-induced peripheral nerve disorder rats; format: in vivo; details: Rattus norvegicus, ip; single intraperitoneal dose of 300 μ/kg; higher of the thresholds after 1 hour and 5 hours; normal threshold 15; read-out: Recovery rate of 50% reaction threshold value (%)
Procedure: The effect of the compound of the present invention was tested for a peripheral nerve disorder which is a side effect induced by the administration of paclitaxel (an anti-cancer agent) such as hyperesthesia including allodynia (severe pain induced by such tactile stimuli which usually cause no pain). The compound of the present invention was intraperitoneally administered to rats as a test drug to conduct a von Frey test.
Male SD rats of six weeks age (one group comprising six rats) were used as experimental animals and paclitaxel (2 mg/kg) was intraperitoneally administered every other day for four times in total to prepare paclitaxel-induced peripheral nerve disorder rats. During 18 and 25 days or during 20 to 27 days after initiation of paclitaxel administration, the test drug was intraperitoneally administered in a single dose of […] and the following von Frey test was conducted.
The rats of the above (1) were placed in a transparent acrylic cage with a wire-meshed floor and habituated for about three minutes and the 50% reaction threshold values to the mechanical stimulus of right hind limb were measured before administration of the test drug and after 1, 5 and 24 hours from initiation of the administration.
The measurement was conducted using von Frey filaments (manufactured by North Coast Medical Inc.) in accordance with the methods of Chaplan, et al. (Journal of Neuroscience Methods, vol. 53, no. 1, pages 55 to 63, 1994) and Dixon, et al. (Annual Review of Pharmacology and Toxicology, vol. 20, pages 441 to 462, 1980). […] The case where the rat escaped at the instance of removing the filament was also called positive. When the positive reaction was noted, stimulus was conducted similarly using a filament of one rank weaker while, when no reaction was noted, stimulus was conducted similarly using a filament of one rank stronger and the point when the reaction changed from negative to positive or from positive to negative was called the first two reactions. After that, stimulus was conducted for continuous four times by the same up-down method. A 50% reaction threshold value to the mechanical stimulus was measured using the reaction to the six stimuli in total and then (mean value)±(standard error) for each group was calculated. Incidentally, when stimulus reached by that of 15.0 g without positive reaction or, when positive reaction continued to 0.4 g, then 15.0 g or 0.25 g was adopted as each threshold value, respectively. With regard to the higher 50% reaction threshold value between the 50% threshold values after 1 hour and 5 hours from administration of a test drug, a recovery rate (%) of the 50% reaction threshold value was calculated by the following expression in which 15 was adopted as the normal threshold value. Recovery rate (%) of 50% reaction threshold value=[(50% reaction threshold value after 1 hour or 5 hours from administration of test drug)−(50% reaction threshold value before administration of test drug)]/[(Normal threshold value)−(50% reaction threshold value before administration of test drug)]

[2] = test system: disablement model rats with hemi-transection of spinal cord; assay: Improvement in motor function (BBB scale) in rats with hemi-transection of spinal cord; format: in vivo
Procedure: Female Wistar rats of seven weeks age (body weight: 120 to 140 g) were anesthetized with pentobarbital (40 mg/kg), thoracic vertebrae were detached to expose the thoracic cord and the left half thereof was cut at the position of the tenth thoracic cord using a sharp razor. After that, the muscle and the skin were satured to prepare disablement model rats with hemi-transection of spinal cord.
The compound of the present invention was dissolved in PBS or in a PBS solvent containing DMSO, etc. and orally administered once daily for 21 to 31 days.
With regard to the group administered with the compound of the present invention (n=3 to 6) and the control group (n=3 to 6), the improvement in motor function of the disablement model rats with hemi-transection of spinal cord was evaluated by a BBB scale (Basso D M, et al., J. Neurotrauma 12:1-21 (1995). Thus, evaluation of motor function was conducted for hind limbs of rats in such respects that whether the joint moves, whether body weight is applied onto the foot, whether walking is done, etc. wherein the movement of the hind limbs was divided into 21 points from no motility to normal state. Incidentally, the test for significance was conducted by a two-way ANOVA, Bonferroni Post test.

SMILES	inhibition in vivo at 0.3 mg/kg [1]	other results
CCCCCCC/C=C/C(=O)OCCN(C)C [Compound 1, (E)-2-(dimethylamino)ethyl dec-2-enoate]	48.3%	
CCCCCCC/C=C/C(=O)OCCN(CC)CC [Compound 6, (E)-2-(diethylamino)ethyl dec-2-enoate]		BBB score ([2]; 100 μg/kg orally once daily, after nine days, control 3.5): 8.3
CCCCCCC/C=C/C(=O)NCCN(C)C [Compound 36, (E)-N-2-(dimethylamino)ethyl dec-2-enamide]	72.1%	BBB score ([2]; 500 μg/kg orally once daily, after fifteen days, control 9.8): 12.3
CCCCCCC/C=C/C(=O)NCCN(CC)CC [Compound 37, (E)-N-2-(diethylamino)ethyl dec-2-enamide]	73.1%	
CCCCCCC/C=C/C(=O)SCCN(C)C [Compound 55, (E)-S-2-(dimethylamino)ethyl dec-2-enethioate]	45.4%	BBB score ([2]; 500 μg/kg orally once daily, after fourteen days, control 8.5): 12.3; BBB score ([2]; 500 μg/kg orally once daily, after seven days, control 1.8): 5.3
